Measurements: PubChem BioAssay AID1963446 (Molecular Pharmacology Branch, DTP, NCI, 2024)
pIC50: −log10 of the molar value.

Test system: 993429-296-R-J1-PDC complex spheroid growth, percent test/control
Experiment: Anticancer human tumor 993429-296-R-J1-PDC patient-derived uterine sarcoma cell line growth inhibition [Asc]
Conditions: for pIC50: curve of first compound; for viability, T/C: stronger effect = lower value
Procedure: Multicellular complex tumor spheroid response to apoptosis pathway targeting inhibitors Alrizomadlin, Pelcitoclax, and Dasminapant in combination with a variety of drugs and investigational agents in selected tumor cell lines
The MDM2 inhibitor alrizomadlin, the Bcl-2/Bcl-xL inhibitor pelcitoclax, and the IAPs inhibitor dasminapant were evaluated both individually and in combination with standard of care and investigational anticancer small molecules within a complex spheroid model of solid tumors. . Complex spheroids include a stromal component modeled by human endothelial cells (HUVEC) and fibroblasts modeled by human mesenchymal stem cells (MSCs). The concentration ranges selected for each drug and investigational agent were based upon clinically achievable concentrations if the clinical Cmax of the agent was known.
Compounds. The drugs and investigational agents: alrizomadlin (APG-115; NSC831270), pelcitoclax (APG-1252; NSC835773), dasminapant (APG-1387;NSC834197), TAK-243 (NSC785004), copanlisib (NSC809693), olaparib (NSC753686), talazoparib (NSC767125), cobimetinib (NSC 768068), eltanexor (KPT-8602, NSC 794443), abemaciclib (NSC 768073), sotorasib (NSC818433), adagrasib (NSC 831453), MRTX-1133 (NSC 836407), Iadademestat (ORY1001, NSC 806812), and RMC-4630 (NSC839698), were obtained from the NCI Developmental Therapeutics Program Chemical Repository. The FDA-approved anticancer drug set is available from the Developmental Therapeutics Program at https://dtp.cancer.gov/organization/dscb/obtaining/available plates.htm. […] The stock solutions were prepared in dimethyl sulfoxide (DMSO, Sigma-Aldrich, St. Louis, MO, cat. D2650) at 800-fold the tested concentration and stored at -70 degrees C prior to their use. All drugs and investigational agents were tested over a range starting from a high concentration at or near the clinical Cmax and decreasing in half-log increments. If the clinical Cmax for an agent had not been determined, the highest concentration tested was 10 microM.
The patient-derived cancer (PDC) cell lines include five colon adenocarcinomas: 186277-243-T-J2-PDC, 616215-338-R-J1-PDC, 439559-082-T-J2-PDC, 463943-066-T-J2-PDC, and 519858-162-T-J1-PDC; three pancreatic carcinomas: 323965-272-R-J2-PDC, 521955-158-R6-J3-PDC, and 521955-158-R2-J5-PDC; two uterine sarcomas: 327498-152-R-J2-PDC and 993429-296-R-J1-PDC; two rhabdomyosarcomas: 755483-174-R-J1-PDC and 772245-204-R-J1-PDC; two soft tissue sarcomas: 126254-015-R-J1-PDC and 494315-158-R-J1-PDC; two malignant fibrous histiocytomas: 317291-083-R-J1-PDC and 596521-263-R-J1-PDC; two breast carcinomas: 171881-019-R-J1-PDC and 885512-296-R-J2-PDC; and one ovarian carcinoma: 6556581-035-R-J-PDC were obtained from the NCI PDMR, (https://pdmr.cancer.gov). The established cell lines HSSY-2 synovial sarcoma (RRID:CVCL 8719), SYO-1 synovial sarcoma (RRID:CVCL_7146), MPNST malignant peripheral neural sheath tumor were obtained from the Sloan Kettering Institute. The following established cell lines were purchased from the American Type Culture Collection (ATCC, Manassas, VA), Sor the received from the NCI repository:, PANC-1 pancreatic carcinoma (CRL-1469, RRID:CVCL_0480), OVCAR-5 ovarian carcinoma (RRID:CVCL_1628), OVCAR-8 ovarian carcinoma (RRID:CVCL_1629), , MCF-7 breast carcinoma (CRL-12584, RRID:CVCL_0031), MDA-MB-231 breast carcinoma (CRL-12532, RRID:CVCL_0062), NCI-H1876 small cell lung carcinoma (CRL-5902, RRID:CVCL_1503), NCI-H510A small cell lung carcinoma (HTB-184, RRID:CVCL_1565), NCI-H1417 (CRL-5869, RRID:CVCL_1469), and NCI-H196 small cell lung carcinoma (CRL-5823, RRID:CVCL_1509). Dr. Peter Houghton (Greehey Children's Cancer Research Institute, University of Texas Health Science Center, San Antonio, TX) provided Rh-18 rhabdomyosarcoma (RRID:CVCL_1659). Pooled donor human umbilical vein endothelial cells (HUVEC, Lonza, cat. CC-2519) and human mesenchymal stem cells (hMSC, Lonza, cat. PT-2501) were purchased from Lonza (Walkersville, MD).
Cell Culture. […]
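Also: spheroids exposed to compounds for seven days.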

`C=C(F)C(=O)N1CCN(c2nc(OCC3CCCN3C)nc3c2CCN(c2cccc4cccc(Cl)c24)C3)CC1CC#N` (stereo not given) + CNC(C)C(=O)NC1CN(S(=O)(=O)c2cccc(S(=O)(=O)N3CCC4CCC(C(=O)NC(c5ccccc5)c5ccccc5)N4C(=O)C(NC(=O)C(C)NC)C3)c2)CCC2CCC(C(=O)NC(c3ccccc3)c3ccccc3)N2C1=O showed a pIC50 (second compound 0.01 µM) of 6.00, a pIC50 (second compound 0.0316 µM) of 5.98 and a pIC50 (second compound 0.1 µM) of 6.21. The pIC50 (second compound 0.316 µM) was > 7.50, the pIC50 (second compound 1 µM) was 7.25 and the viability, T/C (second compound 0.01 µM, first compound 0.0316 µM) was 54.2%. The viability, T/C (second compound 0.01 µM, first compound 0.1 µM) was 59.8%, the viability, T/C (second compound 0.01 µM, first compound 0.316 µM) was 57.6% and the viability, T/C (second compound 0.01 µM, first compound 1 µM) was 50.4%. The viability, T/C (second compound 0.01 µM, first compound 3.16 µM) was 7.74%, the viability, T/C (second compound 0.01 µM, first compound 10 µM) was 0.13% and the viability, T/C (second compound 0.0316 µM, first compound 0.0316 µM) was 59.9%. For the same molecule, the viability, T/C (second compound 0.0316 µM, first compound 0.1 µM) was 58.6%, the viability, T/C (second compound 0.0316 µM, first compound 0.316 µM) was 55.4% and the viability, T/C (second compound 0.0316 µM, first compound 1 µM) was 51.7%. It also gave a viability, T/C (second compound 0.0316 µM, first compound 3.16 µM) of 5.7%, a viability, T/C (second compound 0.0316 µM, first compound 10 µM) of 0.12% and a viability, T/C (second compound 0.1 µM, first compound 0.0316 µM) of 51.4%. For the same molecule, the viability, T/C (second compound 0.1 µM, first compound 0.1 µM) was 54.7%, the viability, T/C (second compound 0.1 µM, first compound 0.316 µM) was 54.8% and the viability, T/C (second compound 0.1 µM, first compound 1 µM) was 47.4%. The viability, T/C (second compound 0.1 µM, first compound 3.16 µM) was 7.4%, the viability, T/C (second compound 0.1 µM, first compound 10 µM) was 0.12% and the viability, T/C (second compound 0.316 µM, first compound 0.0316 µM) was 45.9%. It also gave a viability, T/C (second compound 0.316 µM, first compound 0.1 µM) of 52.4%, a viability, T/C (second compound 0.316 µM, first compound 0.316 µM) of 40.3% and a viability, T/C (second compound 0.316 µM, first compound 1 µM) of 45.4%. It also gave a viability, T/C (second compound 0.316 µM, first compound 3.16 µM) of 7.07%, a viability, T/C (second compound 0.316 µM, first compound 10 µM) of 0.12% and a viability, T/C (second compound 1 µM, first compound 0.0316 µM) of 57.8%. The viability, T/C (second compound 1 µM, first compound 0.1 µM) was 37.8%, the viability, T/C (second compound 1 µM, first compound 0.316 µM) was 37.6% and the viability, T/C (second compound 1 µM, first compound 1 µM) was 34.2%. The viability, T/C (second compound 1 µM, first compound 3.16 µM) was 3.13% and the viability, T/C (second compound 1 µM, first compound 10 µM) was 0.2%.
In the case of `Cn1ncnc1[C@H]1c2n[nH]c(=O)c3cc(F)cc(c23)N[C@@H]1c1ccc(F)cc1` + CCN1C(C(=O)NC23CCC(C(=O)O)(CC2)CC3)C(c2cccc(Cl)c2F)C2(C(=O)Nc3cc(Cl)ccc32)C12CCCCC2, the pIC50 (second compound 0.03 µM) was < 7.00, the pIC50 (second compound 0.0949 µM) was 7.12 and the pIC50 (second compound 0.3 µM) was 7.19. The pIC50 (second compound 0.949 µM) was < 7.00, the pIC50 (second compound 3 µM) was 7.18 and the viability, T/C (second compound 0.03 µM, first compound 0.000316 µM) was 114%. For the same molecule, the viability, T/C (second compound 0.03 µM, first compound 0.001 µM) was 107%, the viability, T/C (second compound 0.03 µM, first compound 0.00316 µM) was 104% and the viability, T/C (second compound 0.03 µM, first compound 0.01 µM) was 62%. It also gave a viability, T/C (second compound 0.03 µM, first compound 0.0316 µM) of 62%, a viability, T/C (second compound 0.03 µM, first compound 0.1 µM) of 45.1% and a viability, T/C (second compound 0.0949 µM, first compound 0.000316 µM) of 94%. For the same molecule, the viability, T/C (second compound 0.0949 µM, first compound 0.001 µM) was 102%, the viability, T/C (second compound 0.0949 µM, first compound 0.00316 µM) was 89.4% and the viability, T/C (second compound 0.0949 µM, first compound 0.01 µM) was 73.6%. It also gave a viability, T/C (second compound 0.0949 µM, first compound 0.0316 µM) of 64.6%, a viability, T/C (second compound 0.0949 µM, first compound 0.1 µM) of 45.4% and a viability, T/C (second compound 0.3 µM, first compound 0.000316 µM) of 96.5%. The viability, T/C (second compound 0.3 µM, first compound 0.001 µM) was 104%, the viability, T/C (second compound 0.3 µM, first compound 0.00316 µM) was 90.6% and the viability, T/C (second compound 0.3 µM, first compound 0.01 µM) was 77.3%. It also gave a viability, T/C (second compound 0.3 µM, first compound 0.0316 µM) of 66%, a viability, T/C (second compound 0.3 µM, first compound 0.1 µM) of 41.4% and a viability, T/C (second compound 0.949 µM, first compound 0.000316 µM) of 109%. The viability, T/C (second compound 0.949 µM, first compound 0.001 µM) was 101%, the viability, T/C (second compound 0.949 µM, first compound 0.00316 µM) was 92.3% and the viability, T/C (second compound 0.949 µM, first compound 0.01 µM) was 65.1%. For the same molecule, the viability, T/C (second compound 0.949 µM, first compound 0.0316 µM) was 59.9%, the viability, T/C (second compound 0.949 µM, first compound 0.1 µM) was 48% and the viability, T/C (second compound 3 µM, first compound 0.000316 µM) was 91.5%. It also gave a viability, T/C (second compound 3 µM, first compound 0.001 µM) of 91.8%, a viability, T/C (second compound 3 µM, first compound 0.00316 µM) of 82.8% and a viability, T/C (second compound 3 µM, first compound 0.01 µM) of 72.5%. The viability, T/C (second compound 3 µM, first compound 0.0316 µM) was 61.5% and the viability, T/C (second compound 3 µM, first compound 0.1 µM) was 43.9%.
